Experimental data taken from ChEMBL document CHEMBL5724806, “Unraveling interindividual differences and functional consequences of gut microbial metabolism of immunosuppressants” (2024).

Key:
Assay type in all cases: ADME
[1] = (§1) The drug is tested on the gut metagenome community of T-03 with ENA study accession number: PRJEB31790 for biotransformation under microaerobic condition. The drug concentrations were measured over 7 timepoints collected between 0 and 12 hours of incubation by liquid-chromatography-coupled mass spectrometry (LC–MS); set-up: dose 5 uM, timepoint 0, 0.75, 1.5, 3, 6, 9, 12 hours; conditions: 5 µM
[2] = as §1, with “A-09” for “T-03”; set-up: dose 5 uM, timepoint 0, 0.75, 1.5, 3, 6, 9, 12 hours; conditions: 5 µM
[3] = The drug is tested on Bacteroides uniformis strain: DSM6597 for biotransformation under anaerobic condition. The drug concentrations were measured over 6 timepoints collected between 0 and 12 hours of incubation by liquid-chromatography-coupled mass spectrometry (LC–MS); set-up: dose 5 uM, timepoint 0, 1.5, 3, 6, 9, 12 hours; conditions: 5 µM
[4] = The drug is tested on Parabacteroides distasonis strain: DSM20701 for biotransformation under anaerobic condition. The drug concentrations were measured over 6 timepoints collected between 0 and 12 hours of incubation by liquid-chromatography-coupled mass spectrometry (LC–MS); set-up: dose 5 uM, timepoint 0, 1.5, 3, 6, 9, 12 hours; conditions: 5 µM
[5] = as §1, with “A-07” for “T-03”, “anaerobic” for “microaerobic”; set-up: dose 5 uM, timepoint 0, 0.75, 1.5, 3, 6, 9, 12 hours; conditions: 5 µM
[6] = as §1, with “P-04” for “T-03”, “anaerobic” for “microaerobic”; set-up: dose 5 uM, timepoint 0, 0.75, 1.5, 3, 6, 9, 12 hours; conditions: 5 µM
[7] = The drug is tested on Faecalibacterium prausnitzii strain: DSM17677 for biotransformation under anaerobic condition. The drug concentrations were measured over 6 timepoints collected between 0 and 12 hours of incubation by liquid-chromatography-coupled mass spectrometry (LC–MS); set-up: dose 5 uM, timepoint 0, 1.5, 3, 6, 9, 12 hours; conditions: faecalibacterium duncaniae, 5 µM
[8] = The drug is tested on Eubacterium rectale strain: DSM17629 for biotransformation under anaerobic condition. The drug concentrations were measured over 6 timepoints collected between 0 and 12 hours of incubation by liquid-chromatography-coupled mass spectrometry (LC–MS); set-up: dose 5 uM, timepoint 0, 1.5, 3, 6, 9, 12 hours; conditions: agathobacter rectalis, 5 µM
[9] = The drug is tested on Streptococcus anginosus strain: DSM20563 for biotransformation under anaerobic condition. The drug concentrations were measured over 6 timepoints collected between 0 and 12 hours of incubation by liquid-chromatography-coupled mass spectrometry (LC–MS); set-up: dose 5 uM, timepoint 0, 1.5, 3, 6, 9, 12 hours; conditions: 5 µM
[10] = as §1, with “A-03” for “T-03”, “anaerobic” for “microaerobic”; set-up: dose 5 uM, timepoint 0, 0.75, 1.5, 3, 6, 9, 12 hours; conditions: 5 µM
[11] = The drug is tested on Bifidobacterium longum strain: DSM20088 for biotransformation under microaerobic condition. The drug concentrations were measured over 6 timepoints collected between 0 and 12 hours of incubation by liquid-chromatography-coupled mass spectrometry (LC–MS); set-up: dose 5 uM, timepoint 0, 1.5, 3, 6, 9, 12 hours; conditions: 5 µM
[12] = The drug is tested on Lactobacillus paracasei strain: ATCC27092 for biotransformation under anaerobic condition. The drug concentrations were measured over 6 timepoints collected between 0 and 12 hours of incubation by liquid-chromatography-coupled mass spectrometry (LC–MS); set-up: dose 5 uM, timepoint 0, 1.5, 3, 6, 9, 12 hours; conditions: lacticaseibacillus paracasei, 5 µM
[13] = The drug is tested on Bacteroides thetaiotaomicron strain: DSM2079 for biotransformation under anaerobic condition. The drug concentrations were measured over 6 timepoints collected between 0 and 12 hours of incubation by liquid-chromatography-coupled mass spectrometry (LC–MS); set-up: dose 5 uM, timepoint 0, 1.5, 3, 6, 9, 12 hours; conditions: 5 µM
[14] = as §1, with “A-01” for “T-03”; set-up: dose 5 uM, timepoint 0, 0.75, 1.5, 3, 6, 9, 12 hours; conditions: 5 µM
[15] = The drug is tested on Lactobacillus gasseri strain: DSM20243 for biotransformation under microaerobic condition. The drug concentrations were measured over 6 timepoints collected between 0 and 12 hours of incubation by liquid-chromatography-coupled mass spectrometry (LC–MS); set-up: dose 5 uM, timepoint 0, 1.5, 3, 6, 9, 12 hours; conditions: 5 µM
[16] = The drug is tested on Bacteroides ovatus strain: ATCC 8483 for biotransformation under anaerobic condition. The drug concentrations were measured over 6 timepoints collected between 0 and 12 hours of incubation by liquid-chromatography-coupled mass spectrometry (LC–MS); set-up: dose 5 uM, timepoint 0, 1.5, 3, 6, 9, 12 hours; conditions: 5 µM
[17] = The drug is tested on Streptococcus salivarius strain: DSM20560 for biotransformation under microaerobic condition. The drug concentrations were measured over 6 timepoints collected between 0 and 12 hours of incubation by liquid-chromatography-coupled mass spectrometry (LC–MS); set-up: dose 5 uM, timepoint 0, 1.5, 3, 6, 9, 12 hours; conditions: 5 µM
[18] = as §1, with “T-02” for “T-03”; set-up: dose 5 uM, timepoint 0, 0.75, 1.5, 3, 6, 9, 12 hours; conditions: 5 µM
[19] = as §1, with “A-02” for “T-03”, “anaerobic” for “microaerobic”; set-up: dose 5 uM, timepoint 0, 0.75, 1.5, 3, 6, 9, 12 hours; conditions: 5 µM
[20] = The drug is tested on Bacteroides vulgatus strain: DSM1447 for biotransformation under anaerobic condition. The drug concentrations were measured over 6 timepoints collected between 0 and 12 hours of incubation by liquid-chromatography-coupled mass spectrometry (LC–MS); set-up: dose 5 uM, timepoint 0, 1.5, 3, 6, 9, 12 hours; conditions: phocaeicola vulgatus, 5 µM
[21] = The drug is tested on Streptococcus mitis strain: DSM12643 for biotransformation under microaerobic condition. The drug concentrations were measured over 6 timepoints collected between 0 and 12 hours of incubation by liquid-chromatography-coupled mass spectrometry (LC–MS); set-up: dose 5 uM, timepoint 0, 1.5, 3, 6, 9, 12 hours; conditions: 5 µM
[22] = The drug is tested on Streptococcus anginosus strain: DSM20563 for biotransformation under microaerobic condition. The drug concentrations were measured over 6 timepoints collected between 0 and 12 hours of incubation by liquid-chromatography-coupled mass spectrometry (LC–MS); set-up: dose 5 uM, timepoint 0, 1.5, 3, 6, 9, 12 hours; conditions: 5 µM
[23] = as §1, with “T-04” for “T-03”; set-up: dose 5 uM, timepoint 0, 0.75, 1.5, 3, 6, 9, 12 hours; conditions: 5 µM
[24] = The drug is tested on Capnocytophaga ochracea strain: DSM7271 for biotransformation under anaerobic condition. The drug concentrations were measured over 6 timepoints collected between 0 and 12 hours of incubation by liquid-chromatography-coupled mass spectrometry (LC–MS); set-up: dose 5 uM, timepoint 0, 1.5, 3, 6, 9, 12 hours; conditions: 5 µM
[25] = The drug is tested on Bacteroides fragilis strain: DSM2151 for biotransformation under anaerobic condition. The drug concentrations were measured over 6 timepoints collected between 0 and 12 hours of incubation by liquid-chromatography-coupled mass spectrometry (LC–MS); set-up: dose 5 uM, timepoint 0, 1.5, 3, 6, 9, 12 hours; conditions: 5 µM
[26] = The drug is tested on Gemella morbillorum strain: DSM20572 for biotransformation under microaerobic condition. The drug concentrations were measured over 6 timepoints collected between 0 and 12 hours of incubation by liquid-chromatography-coupled mass spectrometry (LC–MS); set-up: dose 5 uM, timepoint 0, 1.5, 3, 6, 9, 12 hours; conditions: 5 µM
[27] = The drug is tested on Lactobacillus reuteri strain: DSM20016 for biotransformation under anaerobic condition. The drug concentrations were measured over 6 timepoints collected between 0 and 12 hours of incubation by liquid-chromatography-coupled mass spectrometry (LC–MS); set-up: dose 5 uM, timepoint 0, 1.5, 3, 6, 9, 12 hours; conditions: limosilactobacillus reuteri, 5 µM
[28] = The drug is tested on Lactobacillus ruminis strain: ATCC25644 for biotransformation under anaerobic condition. The drug concentrations were measured over 6 timepoints collected between 0 and 12 hours of incubation by liquid-chromatography-coupled mass spectrometry (LC–MS); set-up: dose 5 uM, timepoint 0, 1.5, 3, 6, 9, 12 hours; conditions: ligilactobacillus ruminis, 5 µM
[29] = as §1, with “T-05” for “T-03”, “anaerobic” for “microaerobic”; set-up: dose 5 uM, timepoint 0, 0.75, 1.5, 3, 6, 9, 12 hours; conditions: 5 µM
[30] = as §1, with “P-03” for “T-03”, “anaerobic” for “microaerobic”; set-up: dose 5 uM, timepoint 0, 0.75, 1.5, 3, 6, 9, 12 hours; conditions: 5 µM

SMILES | Bacterial Biotransformation [1] | Bacterial Biotransformation [2] | Bacterial Biotransformation [3] | Bacterial Biotransformation [4] | Bacterial Biotransformation [5] | Bacterial Biotransformation [6] | Bacterial Biotransformation [7] | Bacterial Biotransformation [8] | Bacterial Biotransformation [9] | Bacterial Biotransformation [10] | Bacterial Biotransformation [11] | Bacterial Biotransformation [12] | Bacterial Biotransformation [13] | Bacterial Biotransformation [14] | Bacterial Biotransformation [15] | Bacterial Biotransformation [16] | Bacterial Biotransformation [17] | Bacterial Biotransformation [18] | Bacterial Biotransformation [19] | Bacterial Biotransformation [20] | further results
C[C@@H]1C[C@H]2[C@@H]3CCC4=CC(=O)C=C[C@]4(C)[C@@]3(F)[C@@H](O)C[C@]2(C)[C@@]1(O)C(=O)CO [DEXAMETHASONE] | Compound NOT metabolized | Compound metabolized | Compound NOT metabolized | Compound NOT metabolized | Compound metabolized | Compound NOT metabolized | Compound NOT metabolized | Compound NOT metabolized | Compound NOT metabolized | Compound metabolized | Compound NOT metabolized | Compound NOT metabolized | Compound NOT metabolized | Compound NOT metabolized | Compound NOT metabolized | Compound NOT metabolized | Compound NOT metabolized | Compound metabolized | Compound metabolized | Compound NOT metabolized | Bacterial Biotransformation [21]: Compound NOT metabolized; Bacterial Biotransformation [22]: Compound NOT metabolized; Bacterial Biotransformation [23]: Compound NOT metabolized; Bacterial Biotransformation [24]: Compound NOT metabolized; Bacterial Biotransformation [25]: Compound NOT metabolized; Bacterial Biotransformation [26]: Compound NOT metabolized; Bacterial Biotransformation [27]: Compound NOT metabolized; Bacterial Biotransformation [28]: Compound NOT metabolized; Bacterial Biotransformation [29]: Compound NOT metabolized; Bacterial Biotransformation [30]: Compound NOT metabolized
COc1ccc([C@@H]2Sc3ccccc3N(CCN(C)C)C(=O)[C@@H]2OC(C)=O)cc1 [DILTIAZEM] | Compound NOT metabolized | Compound metabolized | Compound metabolized | Compound metabolized | Compound metabolized | Compound NOT metabolized | Compound NOT metabolized | Compound NOT metabolized | Compound NOT metabolized | Compound metabolized | Compound NOT metabolized | Compound NOT metabolized | Compound metabolized | Compound metabolized | Compound metabolized | Compound metabolized | Compound metabolized | Compound metabolized | Compound metabolized | Compound NOT metabolized | Bacterial Biotransformation [21]: Compound NOT metabolized; Bacterial Biotransformation [22]: Compound NOT metabolized; Bacterial Biotransformation [23]: Compound NOT metabolized; Bacterial Biotransformation [24]: Compound NOT metabolized; Bacterial Biotransformation [25]: Compound NOT metabolized; Bacterial Biotransformation [26]: Compound metabolized; Bacterial Biotransformation [27]: Compound NOT metabolized; Bacterial Biotransformation [28]: Compound NOT metabolized; Bacterial Biotransformation [29]: Compound NOT metabolized; Bacterial Biotransformation [30]: Compound metabolized
CO[C@H]1C[C@@H]2CC[C@@H](C)[C@@](O)(O2)C(=O)C(=O)N2CCCC[C@H]2C(=O)O[C@H]([C@H](C)C[C@@H]2CC[C@@H](OCCO)[C@H](OC)C2)CC(=O)[C@H](C)/C=C(\C)[C@@H](O)[C@@H](OC)C(=O)[C@H](C)C[C@H](C)/C=C/C=C/C=C/1C [EVEROLIMUS] | Compound NOT metabolized | Compound metabolized | Compound NOT metabolized | Compound NOT metabolized | Compound metabolized | Compound NOT metabolized | Compound NOT metabolized | Compound NOT metabolized | Compound NOT metabolized | Compound metabolized | Compound NOT metabolized | Compound NOT metabolized | Compound NOT metabolized | Compound metabolized | Compound NOT metabolized | Compound NOT metabolized | Compound NOT metabolized | Compound metabolized | Compound metabolized | Compound NOT metabolized | Bacterial Biotransformation [21]: Compound NOT metabolized; Bacterial Biotransformation [22]: Compound NOT metabolized; Bacterial Biotransformation [23]: Compound NOT metabolized; Bacterial Biotransformation [24]: Compound NOT metabolized; Bacterial Biotransformation [25]: Compound NOT metabolized; Bacterial Biotransformation [26]: Compound NOT metabolized; Bacterial Biotransformation [27]: Compound NOT metabolized; Bacterial Biotransformation [28]: Compound NOT metabolized; Bacterial Biotransformation [29]: Compound NOT metabolized; Bacterial Biotransformation [30]: Compound NOT metabolized
